Assay results from patent publication US5157052A, “Method for inhibiting IgE production” (priority 1990, dated 1992).

Experiments:
[1] = test system: IgM; assay: Serum IgM in anti-IgD stimulated mice (two site sandwich ELISA, Assay E); format: in vivo, mouse (Balb/c female); details: 20 μg days 3 and 4; for inhibition of IgM: Example 25; for IgM ± SD: Table 14, day 8 (control 4147)
Description: (§1) Sera from mice treated with compounds in accordance with the method of the invention are analyzed for levels of IgG1, IgG2a, IgG3, and IgM.
Measurement of mouse IgM by a two site sandwich ELISA is performed in substantial accordance with the teachings of Assay B except for the following changes. About 250 ng of rabbit anti-mouse IgM (Zymed Laboratories) is used to coat a NuncImmulon 96 well plate. The IgM standard is purchased from Southern Biotech. The standard curve is linear between 8-500 ng/ml. Serum containing IgM is diluted 1/4,000 to 1/60,000. About a 1/10,000 dilution of goat anti mouse IgM conjugated to horse radish peroxidase is used as a combined primary antibody and developing reagent. 100 μl is added to each well and the plate is incubated at about 4° C. overnight. The colorimetric substrate is prepared and used as described in Assay A.
Two groups of 4 Balb/c female mice per group are injected with both 100 μg FF1-4D5 antibody and 100 μg H∂Al antibody. On day 3 and 4 the mice are injected with PBS (Group A) or 20 μg (±) methyl 11α,16-dihydroxy-16-ethyl-9-oxoprosta-5Z,13E-dien-1-oate (Group B) at 7 a.m., 1 p.m. and 7 p.m. in substantial accordance with the teaching of Example 13. On day -1, 7, 8, 9 and 11, 50-100 μl of serum is recovered and analyzed for IgE by Assay A and for IgM by Assay E. The results are shown in Table 6.
(§2) Three groups of 5 Balb/c female mice per group are injected with both 100 μg FF1-4D5 antibody and 100 μg H∂A1 antibody on day 0. Group A is a control with no further treatment. On day 3 and 4, the mice are injected with 20 μg (±) methyl 11α,16-dihydroxy-4,4,16-trimethyl-9-oxoprosta-13E-en-1-oate (Group B) or 20 μg (±) methyl 11α,16-dihydroxy-16-methyl-9-oxoprosta-3,5Z,13E-trien-1-oate (Group C) as in Example 13. On day -1 and 8, […] of serum is recovered and analyzed for IgE, IgG1, IgG2a, IgG3 and IgM by Assays A, B, C, D and E, respectively.

[2] = test system: IgG1; assay: Serum IgG1 in anti-IgD stimulated mice (two site sandwich ELISA, Assay B); format: in vivo, mouse (Balb/c female)
Description: as §1
Mouse IgG1 measurement by a two site sandwich ELISA is as follows. About 5 μg of rabbit anti mouse IgG (Organon-Teknika-Cappel, Malvern, Pa.) is attached to the wells of a NuncImmulon 96 well plate and IgG1 levels are determined in substantial accordance with Assay A except with the following changes. The IgG1 standard is purchased from Southern BioTech, Birmingham, Ala., and stored at 10 μg/ml in 2% NBS in PBS at 4° C. The standard curve is prepared by diluting the mouse IgG1 standard in 0.05% Tween-80 in PBS, and is linear between 3.9 and 250 ng/ml. Serum containing IgG1 is diluted 1/10,000 to 1/1,000,000 in 0.05% Tween 80-PBS, to place the measurement within the standard curve. Standard IgG1 (or diluted serum) is incubated at about 37° C. for 1 hour and the plates are washed with 0.05% Tween 80-PBS as described in Assay A. About a 1/3,000 dilution of Goat anti mouse IgG1 (Southern Biotech, Birmingham, Ala.) conjugated to alkaline phosphatase in 0.05% Tween 80-PBS is added to each well and incubated at about 37° C. for 60 minutes. The plate is washed and colorimetric substrate, prepared as described by the manufacturer (Alkaline Phosphatase Substrate System, KPL, Gaithersburg, Md.), is added and optical density and data analysis is performed in the same manner as Assay A.
Sera from the mice described in Example 13 are analyzed for the levels of IgG1, IgG2a, and IgG3 by Assays B, C, and D, respectively.
Two groups of 4 Balb/c female mice per group are injected with both 100 μg FF1-4D5 antibody and 100 μg H∂A1 antibody. One of these groups is a stimulated control designated Group B. On day 3 and 4, the other group is injected with 40 μg (±) methyl 11α, 16-dihydroxy-1-methyl-9-oxoprosta-4Z,13E-dien-1-oate. Another group is injected with only PBS as an unstimulated control (Group A). On day -1 and 8, 50-100 μl of serum is recovered and analyzed for IgE, IgG1 and IgG2a by Assays A, B, and C, respectively.
3 groups of 4 Balb/c female mice per group are injected with both 100 μg FF1-4D5 antibody and 100 μg H∂A1 antibody on day 0. Group A is given no further treatment. On day 3 and 4, one group of mice is injected with 20 μg (±) methyl 2-[2-[3R-3α-hydroxy-2β-(4-hydroxy-4-methyl-1E-octenyl-5-oxo-1α-cyclopentyl]-methyl]cyclopropanebutanoate (Group B) and another group with 20 μg (±) methyl 2-[2-[3R-3α-hydroxy-2β-(4-hydroxy-4-methyl-1E-octenyl)-5-oxo-1α-cyclopentyl]ethyl]cyclopropanepropanoate (Group C) as in Example 13. On day -1 and 8, 50-100 μl of serum is recovered and analyzed for IgE, IgG1, IgG2a and IgG3 by Assays A, B, C and D, respectively. The selectivity of inhibition of IgE is shown in Table 12.
as §2

[3] = Table 14, 20 μg days 3 and 4, day 8 (control 21703)
[4] = Table 12, 20 μg days 3 and 4, day 8 (control 10525)

## CCCCC(C)(O)C/C=C/[C@H]1[C@H](O)CC(=O)[C@@H]1CCCC(C)(C)CCC(=O)OC (mixture of isomers) [(±) methyl 11α,16-dihydroxy-4,4,16-trimethyl-9-oxoprost-13E-en-1-oate]
[1]
  inhibition of IgM: not IgG1, IgG2a, IgG3 and IgM
  IgM ± SD: 9792 ± 984 µg/mL
[2]; 20 μg days 3 and 4, Example 25
  inhibition of IgG1: not IgG1, IgG2a, IgG3 and IgM
[2]; [3]
  IgG1 ± SD: 22555 ± 5821 µg/mL

## CCCCC(C)(O)C/C=C/[C@H]1[C@H](O)CC(=O)[C@@H]1C/C=C\CCCC(=O)OC (mixture of isomers) [(±) methyl 11α,16-dihydroxy-16-methyl-9-oxoprosta-5Z,13E-dien-1-oate]
[2]; 40 μg IP days 3 and 4, day 8
  IgG1 ± SD: 15666 ± 2300 µg/mL
[2]; 40 μg IP days 3 and 4, day -1 baseline before treatment
  IgG1 ± SD: 175 ± 32 µg/mL

## CCCCC(C)(O)C/C=C/[C@H]1[C@H](O)CC(=O)[C@@H]1CCC1CC1CCC(=O)OC (relative stereo) [(±) methyl 2-[2-[3R-3α-hydroxy-2β-(4-hydroxy-4-methyl-1E-octenyl)-5-oxo-1α-cyclopentyl]ethyl]cyclopropanepropanoate]
[2]; 20 μg days 3 and 4, Example 23
  inhibition of IgG1: not IgG1, IgG2a or IgG3
[2]; [4]
  IgG1 ± SD: 22573 ± 5690 µg/mL

## CCCCC(C)(O)C/C=C/[C@H]1[C@H](O)CC(=O)[C@@H]1CC1CC1CCCC(=O)OC (relative stereo) [(±) methyl 2-[2-[3R-3α-hydroxy-2β-(4-hydroxy-4-methyl-1E-octenyl)-5-oxo-1α-cyclopentyl]methyl]cyclopropanebutanoate]
[2]; 20 μg days 3 and 4, Example 23
  inhibition of IgG1: not IgG1, IgG2a or IgG3
[2]; [4]
  IgG1 ± SD: 14470 ± 2997 µg/mL

## CCCCC(C)(O)C/C=C/[C@H]1[C@H](O)CC(=O)[C@@H]1C/C=C\C=CCC(=O)OC (relative stereo) [(±) methyl 11α,16-dihydroxy-16-methyl-9-oxoprosta-3,5Z,13-trien-1-oate]
[1]
  inhibition of IgM: not IgG1, IgG2a, IgG3 and IgM
  IgM ± SD: 7708 µg/mL
[2]; 20 μg days 3 and 4, Example 25
  inhibition of IgG1: not IgG1, IgG2a, IgG3 and IgM
[2]; [3]
  IgG1 ± SD: 18320 ± 4695 µg/mL
